Read-outs that look alike come from different tables or passages of the source.
Key:
CSF1R Ba/F3 cells = experiment: Cell viability assay, Ba/F3 cells engineered to be dependent on CSF1R; assay type: cell-based; settings: Mus musculus, BaF3, Ba/F3 cells dependent on CSF1R, duplicate measurements
CSF1R = CSF1R (Homo sapiens, UniProt P07333); experiment: CSF1R enzymatic IC50, Z-LYTE assay platform; assay type: biochemical
cKIT kinase = biological target: T1, cKIT kinase (Homo sapiens, UniProt P10721); experiment: KIT inhibition (KD), TR-FRET tracer displacement; assay type: binding; settings: kinase tracer 236, anti-GST antibody Eu-conjugate, read-out: KIT enz. KD
T1 construct: purchased Carna Biosciences

AURKB (Aurora B) = biological target: T2, AURKB (Aurora B) (Homo sapiens, UniProt Q96GD4); experiment: Kinase panel profiling: AURKB; assay type: biochemical; settings: ATP equal to KM
T2 construct: purchased Thermo Fisher Scientific (Invitrogen) SelectScreen (Z'-LYTE)

AXL = biological target: T3, AXL (Homo sapiens, UniProt P30530); experiment: Kinase panel profiling: AXL; assay type: biochemical; settings: ATP equal to KM
T3 construct: purchased Thermo Fisher Scientific (Invitrogen) SelectScreen (Z'-LYTE)

BLK = biological target: T4, BLK (Homo sapiens, UniProt P51451); experiment: Kinase panel profiling: BLK; assay type: biochemical; settings: ATP equal to KM
T4 construct: purchased Thermo Fisher Scientific (Invitrogen) SelectScreen (Z'-LYTE)

CAMK1D (CaMKI delta) = biological target: T5, CAMK1D (CaMKI delta) (Homo sapiens, UniProt Q8IU85); experiment: Kinase panel profiling: CAMK1D; assay type: biochemical; settings: ATP equal to KM
T5 construct: purchased Thermo Fisher Scientific (Invitrogen) SelectScreen (Z'-LYTE)

CHEK1 (CHK1) = biological target: T6, CHEK1 (CHK1) (Homo sapiens, UniProt O14757); experiment: Kinase panel profiling: CHEK1; assay type: biochemical; settings: ATP equal to KM
T6 construct: purchased Thermo Fisher Scientific (Invitrogen) SelectScreen (Z'-LYTE)
T6 sequence (O14757 1-476): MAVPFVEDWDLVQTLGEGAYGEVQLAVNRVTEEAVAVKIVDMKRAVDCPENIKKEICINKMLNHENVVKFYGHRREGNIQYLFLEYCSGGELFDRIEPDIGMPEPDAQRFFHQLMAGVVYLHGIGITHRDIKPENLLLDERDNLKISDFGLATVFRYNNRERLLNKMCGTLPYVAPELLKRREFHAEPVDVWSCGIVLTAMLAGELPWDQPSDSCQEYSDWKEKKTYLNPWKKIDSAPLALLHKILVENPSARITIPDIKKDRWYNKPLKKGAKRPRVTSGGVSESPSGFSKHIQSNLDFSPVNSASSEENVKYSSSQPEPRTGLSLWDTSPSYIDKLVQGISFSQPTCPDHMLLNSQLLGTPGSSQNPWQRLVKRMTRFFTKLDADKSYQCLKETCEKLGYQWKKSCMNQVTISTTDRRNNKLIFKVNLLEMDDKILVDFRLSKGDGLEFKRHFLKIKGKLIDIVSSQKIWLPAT

DYRK1A = biological target: T7, DYRK1A (Homo sapiens, UniProt Q13627); experiment: Kinase panel profiling: DYRK1A; assay type: biochemical; settings: ATP equal to KM
T7 construct: purchased Thermo Fisher Scientific (Invitrogen) SelectScreen (Z'-LYTE)

EPHA2 = biological target: T8, EPHA2 (Homo sapiens, UniProt P29317); experiment: Kinase panel profiling: EPHA2; assay type: biochemical; settings: ATP equal to KM
T8 construct: purchased Thermo Fisher Scientific (Invitrogen) SelectScreen (Z'-LYTE)

FLT3 = biological target: T9, FLT3 (Homo sapiens, UniProt P36888); experiment: Kinase panel profiling: FLT3; assay type: biochemical; settings: ATP equal to KM
T9 construct: purchased Thermo Fisher Scientific (Invitrogen) SelectScreen (Z'-LYTE)
T9 sequence (P36888 27-993): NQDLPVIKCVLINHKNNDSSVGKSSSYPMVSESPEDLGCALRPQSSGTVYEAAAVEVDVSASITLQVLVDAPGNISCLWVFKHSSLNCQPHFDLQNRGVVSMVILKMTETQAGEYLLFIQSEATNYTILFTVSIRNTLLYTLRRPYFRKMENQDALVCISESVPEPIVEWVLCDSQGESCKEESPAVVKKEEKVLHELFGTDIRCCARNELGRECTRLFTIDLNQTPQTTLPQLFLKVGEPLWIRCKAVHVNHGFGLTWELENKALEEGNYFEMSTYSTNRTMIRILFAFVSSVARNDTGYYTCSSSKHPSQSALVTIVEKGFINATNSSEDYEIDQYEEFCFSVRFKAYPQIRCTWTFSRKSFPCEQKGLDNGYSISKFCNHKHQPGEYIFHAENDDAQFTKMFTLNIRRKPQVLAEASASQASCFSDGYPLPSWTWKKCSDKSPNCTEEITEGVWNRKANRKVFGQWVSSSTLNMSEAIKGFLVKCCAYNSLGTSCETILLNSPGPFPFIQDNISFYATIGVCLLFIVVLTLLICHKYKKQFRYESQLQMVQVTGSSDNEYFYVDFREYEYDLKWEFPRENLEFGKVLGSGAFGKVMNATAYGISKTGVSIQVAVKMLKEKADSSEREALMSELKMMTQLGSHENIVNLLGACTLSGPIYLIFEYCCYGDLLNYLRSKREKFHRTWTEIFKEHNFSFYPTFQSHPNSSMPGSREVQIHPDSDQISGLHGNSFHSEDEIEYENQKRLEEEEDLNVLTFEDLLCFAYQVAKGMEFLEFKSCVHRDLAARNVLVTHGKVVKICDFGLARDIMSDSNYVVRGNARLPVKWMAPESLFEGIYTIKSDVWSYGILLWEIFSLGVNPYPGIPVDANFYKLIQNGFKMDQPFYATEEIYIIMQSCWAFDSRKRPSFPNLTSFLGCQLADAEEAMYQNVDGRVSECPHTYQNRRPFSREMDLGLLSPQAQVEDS

FYN = biological target: T10, FYN (Homo sapiens, UniProt P06241); experiment: Kinase panel profiling: FYN; assay type: biochemical; settings: ATP equal to KM
T10 construct: purchased Thermo Fisher Scientific (Invitrogen) SelectScreen (Z'-LYTE)

JAK1 = biological target: T11, JAK1 (Homo sapiens, UniProt P23458); experiment: Kinase panel profiling: JAK1; assay type: biochemical; settings: ATP equal to KM
T11 construct: purchased Thermo Fisher Scientific (Invitrogen) SelectScreen (Z'-LYTE)

LYN A = biological target: T12, LYN A (Homo sapiens, UniProt P07948); experiment: Kinase panel profiling: LYN A; assay type: biochemical; settings: ATP equal to KM
T12 construct: purchased Thermo Fisher Scientific (Invitrogen) SelectScreen (Z'-LYTE)

MKNK1 (MNK1) = biological target: T13, MKNK1 (MNK1) (Homo sapiens, UniProt Q9BUB5); experiment: Kinase panel profiling: MKNK1; assay type: biochemical; settings: ATP equal to KM
T13 construct: purchased Thermo Fisher Scientific (Invitrogen) SelectScreen (Z'-LYTE)

NEK1 = biological target: T14, NEK1 (Homo sapiens, UniProt Q96PY6); experiment: Kinase panel profiling: NEK1; assay type: biochemical; settings: ATP equal to KM
T14 construct: purchased Thermo Fisher Scientific (Invitrogen) SelectScreen (Z'-LYTE)

PAK1 = biological target: T15, PAK1 (Homo sapiens, UniProt Q13153); experiment: Kinase panel profiling: PAK1; assay type: biochemical; settings: ATP equal to KM
T15 construct: purchased Thermo Fisher Scientific (Invitrogen) SelectScreen (Z'-LYTE)

[1] = 1000 nM test concentration, read-out: Average inhibition (%)
[2] = 1000 nM, first data point, read-out: Inhibition (%)
[3] = 1000 nM, second data point, read-out: Inhibition (%)

T11 sequence (P23458 whole entry): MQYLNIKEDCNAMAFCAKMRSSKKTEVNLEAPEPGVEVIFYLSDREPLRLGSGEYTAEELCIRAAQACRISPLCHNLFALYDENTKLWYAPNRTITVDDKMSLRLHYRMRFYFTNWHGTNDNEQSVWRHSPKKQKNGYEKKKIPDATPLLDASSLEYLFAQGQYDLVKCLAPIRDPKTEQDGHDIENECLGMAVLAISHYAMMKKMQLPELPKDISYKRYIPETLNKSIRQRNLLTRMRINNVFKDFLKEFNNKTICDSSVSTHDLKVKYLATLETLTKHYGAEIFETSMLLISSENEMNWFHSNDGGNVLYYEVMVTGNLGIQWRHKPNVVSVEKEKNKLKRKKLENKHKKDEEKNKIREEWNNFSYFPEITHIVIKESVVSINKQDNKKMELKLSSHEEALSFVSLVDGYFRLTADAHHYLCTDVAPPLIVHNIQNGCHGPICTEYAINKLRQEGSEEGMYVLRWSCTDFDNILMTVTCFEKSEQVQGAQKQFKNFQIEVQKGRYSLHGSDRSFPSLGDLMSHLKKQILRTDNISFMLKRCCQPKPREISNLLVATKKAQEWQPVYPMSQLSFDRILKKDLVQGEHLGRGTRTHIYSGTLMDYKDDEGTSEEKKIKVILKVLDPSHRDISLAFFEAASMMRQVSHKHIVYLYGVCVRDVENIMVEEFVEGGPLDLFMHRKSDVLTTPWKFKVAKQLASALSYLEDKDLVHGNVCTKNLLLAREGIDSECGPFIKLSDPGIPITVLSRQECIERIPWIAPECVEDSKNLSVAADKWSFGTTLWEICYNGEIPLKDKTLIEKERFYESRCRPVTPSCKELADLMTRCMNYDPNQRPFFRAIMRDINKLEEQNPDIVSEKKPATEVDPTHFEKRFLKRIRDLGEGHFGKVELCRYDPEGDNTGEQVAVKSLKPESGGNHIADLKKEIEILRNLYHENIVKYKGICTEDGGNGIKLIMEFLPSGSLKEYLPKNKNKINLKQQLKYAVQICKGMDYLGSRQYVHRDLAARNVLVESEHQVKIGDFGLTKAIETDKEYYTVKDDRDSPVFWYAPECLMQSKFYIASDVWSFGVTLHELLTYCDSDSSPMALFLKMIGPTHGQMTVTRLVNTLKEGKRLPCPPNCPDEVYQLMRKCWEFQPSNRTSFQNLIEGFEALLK
T15 sequence (Q13153 whole entry): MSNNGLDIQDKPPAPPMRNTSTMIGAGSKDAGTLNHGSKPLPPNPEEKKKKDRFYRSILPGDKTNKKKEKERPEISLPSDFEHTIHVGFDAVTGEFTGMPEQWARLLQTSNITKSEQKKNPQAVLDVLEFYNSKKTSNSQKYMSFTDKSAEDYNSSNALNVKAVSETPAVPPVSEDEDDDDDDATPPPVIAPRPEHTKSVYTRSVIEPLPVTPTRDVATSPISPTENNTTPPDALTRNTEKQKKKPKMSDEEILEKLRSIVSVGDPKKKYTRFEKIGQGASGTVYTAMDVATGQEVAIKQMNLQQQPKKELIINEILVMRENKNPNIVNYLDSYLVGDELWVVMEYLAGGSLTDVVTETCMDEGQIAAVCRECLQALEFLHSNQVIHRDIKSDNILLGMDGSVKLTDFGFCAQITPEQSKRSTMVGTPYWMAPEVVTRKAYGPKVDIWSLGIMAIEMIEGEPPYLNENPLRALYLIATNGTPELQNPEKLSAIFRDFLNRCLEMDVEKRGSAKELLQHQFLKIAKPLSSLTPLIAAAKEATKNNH
T8 sequence (P29317 24-976): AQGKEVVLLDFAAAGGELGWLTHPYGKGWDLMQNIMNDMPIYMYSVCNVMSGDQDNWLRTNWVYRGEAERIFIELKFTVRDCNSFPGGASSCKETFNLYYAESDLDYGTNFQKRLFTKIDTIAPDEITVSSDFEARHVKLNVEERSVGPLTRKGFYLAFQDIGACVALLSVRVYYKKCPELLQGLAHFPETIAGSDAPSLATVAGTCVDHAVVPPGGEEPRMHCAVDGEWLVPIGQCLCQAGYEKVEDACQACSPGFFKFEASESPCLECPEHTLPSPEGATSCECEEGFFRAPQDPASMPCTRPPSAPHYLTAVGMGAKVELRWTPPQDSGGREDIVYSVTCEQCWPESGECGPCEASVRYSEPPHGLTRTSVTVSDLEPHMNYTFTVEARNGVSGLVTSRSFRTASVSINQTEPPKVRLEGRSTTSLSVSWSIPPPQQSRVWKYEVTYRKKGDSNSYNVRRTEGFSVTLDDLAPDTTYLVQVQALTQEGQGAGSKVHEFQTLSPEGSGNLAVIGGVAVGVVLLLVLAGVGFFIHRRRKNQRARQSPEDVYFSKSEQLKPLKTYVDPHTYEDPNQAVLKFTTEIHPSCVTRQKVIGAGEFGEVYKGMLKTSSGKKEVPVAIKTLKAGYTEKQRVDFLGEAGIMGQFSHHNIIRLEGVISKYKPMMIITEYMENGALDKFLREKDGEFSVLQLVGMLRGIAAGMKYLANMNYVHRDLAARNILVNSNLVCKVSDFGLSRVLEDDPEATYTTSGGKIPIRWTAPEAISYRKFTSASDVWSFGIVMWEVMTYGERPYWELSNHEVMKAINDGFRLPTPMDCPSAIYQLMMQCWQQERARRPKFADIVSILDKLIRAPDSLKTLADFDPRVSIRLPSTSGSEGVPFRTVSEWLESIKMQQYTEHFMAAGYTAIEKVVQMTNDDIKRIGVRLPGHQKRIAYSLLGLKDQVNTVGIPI
T10 sequence (P06241 whole entry): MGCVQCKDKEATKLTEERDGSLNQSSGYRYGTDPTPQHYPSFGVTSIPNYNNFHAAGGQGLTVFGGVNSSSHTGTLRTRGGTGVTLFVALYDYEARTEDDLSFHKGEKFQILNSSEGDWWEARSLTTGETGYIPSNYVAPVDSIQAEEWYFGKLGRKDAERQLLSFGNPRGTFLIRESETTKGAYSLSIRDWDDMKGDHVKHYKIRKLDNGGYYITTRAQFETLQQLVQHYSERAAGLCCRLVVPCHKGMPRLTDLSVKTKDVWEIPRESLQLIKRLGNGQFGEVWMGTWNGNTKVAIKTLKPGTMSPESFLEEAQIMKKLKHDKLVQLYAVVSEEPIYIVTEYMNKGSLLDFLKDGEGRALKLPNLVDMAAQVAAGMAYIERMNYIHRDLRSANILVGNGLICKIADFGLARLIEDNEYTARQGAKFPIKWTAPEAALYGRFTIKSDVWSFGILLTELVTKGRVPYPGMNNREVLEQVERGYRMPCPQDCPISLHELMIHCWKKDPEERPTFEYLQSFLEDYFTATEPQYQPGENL
T2 sequence (Q96GD4 whole entry): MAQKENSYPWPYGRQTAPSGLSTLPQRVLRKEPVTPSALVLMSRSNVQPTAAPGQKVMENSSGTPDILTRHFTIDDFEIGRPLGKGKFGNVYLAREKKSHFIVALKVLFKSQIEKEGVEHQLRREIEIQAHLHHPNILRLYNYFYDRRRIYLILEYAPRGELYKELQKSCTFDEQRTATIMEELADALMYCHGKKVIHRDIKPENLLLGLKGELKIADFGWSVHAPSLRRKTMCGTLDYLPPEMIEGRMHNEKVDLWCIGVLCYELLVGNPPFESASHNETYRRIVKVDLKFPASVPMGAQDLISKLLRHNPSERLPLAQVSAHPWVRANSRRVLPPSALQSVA
T13 sequence (Q9BUB5 whole entry): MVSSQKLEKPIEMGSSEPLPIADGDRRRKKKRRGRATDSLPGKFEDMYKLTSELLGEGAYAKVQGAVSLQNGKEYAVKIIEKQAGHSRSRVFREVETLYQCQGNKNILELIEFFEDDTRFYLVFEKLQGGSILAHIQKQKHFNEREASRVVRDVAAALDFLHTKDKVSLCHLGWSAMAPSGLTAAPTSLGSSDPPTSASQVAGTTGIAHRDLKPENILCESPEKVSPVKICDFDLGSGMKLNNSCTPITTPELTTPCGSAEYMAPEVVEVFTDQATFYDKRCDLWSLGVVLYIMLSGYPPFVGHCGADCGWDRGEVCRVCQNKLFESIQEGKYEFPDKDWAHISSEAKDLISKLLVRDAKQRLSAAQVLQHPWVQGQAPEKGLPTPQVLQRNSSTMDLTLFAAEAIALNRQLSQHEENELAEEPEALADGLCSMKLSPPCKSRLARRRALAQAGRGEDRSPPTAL
T5 sequence (Q8IU85 whole entry): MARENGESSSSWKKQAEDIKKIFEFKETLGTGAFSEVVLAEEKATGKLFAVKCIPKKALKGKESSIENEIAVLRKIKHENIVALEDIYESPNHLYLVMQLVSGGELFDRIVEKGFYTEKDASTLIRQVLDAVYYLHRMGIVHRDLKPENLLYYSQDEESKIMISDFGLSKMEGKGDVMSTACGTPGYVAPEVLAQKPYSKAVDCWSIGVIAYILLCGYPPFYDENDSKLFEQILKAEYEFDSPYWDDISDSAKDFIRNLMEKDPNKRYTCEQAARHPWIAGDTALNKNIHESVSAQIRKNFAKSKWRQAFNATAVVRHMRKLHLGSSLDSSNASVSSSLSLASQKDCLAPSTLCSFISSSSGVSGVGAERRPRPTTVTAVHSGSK
T4 sequence (P51451 whole entry): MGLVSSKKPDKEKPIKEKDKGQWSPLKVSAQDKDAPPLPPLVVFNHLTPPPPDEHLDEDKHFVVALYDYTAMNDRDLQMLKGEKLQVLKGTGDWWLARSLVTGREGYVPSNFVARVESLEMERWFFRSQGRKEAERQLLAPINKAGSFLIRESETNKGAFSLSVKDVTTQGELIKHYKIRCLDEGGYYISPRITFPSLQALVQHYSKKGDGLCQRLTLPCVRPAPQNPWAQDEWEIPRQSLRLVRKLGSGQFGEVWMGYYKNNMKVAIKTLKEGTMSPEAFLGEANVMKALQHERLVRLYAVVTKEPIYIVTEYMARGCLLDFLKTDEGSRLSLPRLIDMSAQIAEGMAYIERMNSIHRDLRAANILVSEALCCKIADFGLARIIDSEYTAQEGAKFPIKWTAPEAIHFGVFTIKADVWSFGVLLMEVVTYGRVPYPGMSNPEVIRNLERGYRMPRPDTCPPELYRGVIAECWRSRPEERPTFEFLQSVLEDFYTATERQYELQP

Cc1cccc(CN(C)c2ncnc3[nH]c(-c4cn(Cc5cccnc5)nn4)cc23)c1 [Compound 27a, N-Methyl-N-(3-methylbenzyl)-6-(1-(pyridin-3-ylmethyl)-1H-1,2,3-triazol-4-yl)-7H-pyrrolo[2,3-d]pyrimidin-4-amine]
IC50 (CSF1R Ba/F3 cells): 300 nM | Hill coefficient (CSF1R; Z-LYTE CSF1R IC50 curve): 0.903 | IC50 (CSF1R; Z-LYTE, 10-point titrations in duplicates, ATP equal to KM ca. 10 µM, read-out: CSF1R enz. IC50): 0.4 ± 0.2 nM | Kd (cKIT kinase): 793 nM | inhibition at 1 µM (AURKB (Aurora B); [1]): 47% | inhibition at 1 µM (AURKB (Aurora B); [2]): 47% | inhibition at 1 µM (AURKB (Aurora B); [3]): 46% | inhibition at 1 µM (AXL; [1]): 16% | inhibition at 1 µM (AXL; [2]): 16% | inhibition at 1 µM (BLK; [1]): 69% | inhibition at 1 µM (BLK; [2]): 69% | inhibition at 1 µM (CAMK1D (CaMKI delta); [1]): 5% | inhibition at 1 µM (CAMK1D (CaMKI delta); [2]): 2% | inhibition at 1 µM (CAMK1D (CaMKI delta); [3]): 9% | inhibition at 1 µM (CHEK1 (CHK1); [1]): 5% | inhibition at 1 µM (CHEK1 (CHK1); [2]): 0% | inhibition at 1 µM (CHEK1 (CHK1); [3]): 9% | inhibition at 1 µM (DYRK1A; [1]): 5% | inhibition at 1 µM (DYRK1A; [2]): 5% | inhibition at 1 µM (DYRK1A; [3]): 4% | inhibition at 1 µM (EPHA2; [1]): 89% | inhibition at 1 µM (EPHA2; [2]): 88% | inhibition at 1 µM (EPHA2; [3]): 91% | inhibition at 1 µM (FLT3; [1]): 44% | inhibition at 1 µM (FLT3; [2]): 42% | inhibition at 1 µM (FLT3; [3]): 45% | inhibition at 1 µM (FYN; [1]): 76% | inhibition at 1 µM (FYN; [2]): 75% | inhibition at 1 µM (FYN; [3]): 77% | inhibition at 1 µM (JAK1; [1]): 9% | inhibition at 1 µM (JAK1; [2]): 22% | inhibition at 1 µM (JAK1; [3]): -3% | inhibition at 1 µM (LYN A; [1]): 66% | inhibition at 1 µM (LYN A; [2]): 66% | inhibition at 1 µM (MKNK1 (MNK1); [1]): 2% | inhibition at 1 µM (MKNK1 (MNK1); [2]): 3% | inhibition at 1 µM (MKNK1 (MNK1); [3]): 1% | inhibition at 1 µM (NEK1; [1]): 28% | inhibition at 1 µM (NEK1; [2]): 28% | inhibition at 1 µM (PAK1; [1]): 2% | inhibition at 1 µM (PAK1; [2]): 4% | inhibition at 1 µM (PAK1; [3]): 0%

Reference: paper PMC12196347, “Evaluating Triazole-Substituted Pyrrolopyrimidines as CSF1R Inhibitors” (Molecules, 2025)
